Data published in patent US10912786B2, “Silyl monomers capable of multimerizing in an aqueous solution, and methods of using same” (Cornell University, priority 2011, dated 2021).

Columns and labels:
[1] = biological target: T1, recombinant human tryptase, beta, from lung (Homo sapiens, UniProt P20231); assay: Evaluation of inhibition of tryptase activity (Boc-Gln-Ala-Arg-AMC fluorescence); assay type: biochemical; settings: exemplary silyl monomers; 1 nM tryptase; read-out: IC50 range
T1 construct: purchased Promega or Enzo Life Sciences G5631 or BML-SE418
T1 sequence (P20231 31-275): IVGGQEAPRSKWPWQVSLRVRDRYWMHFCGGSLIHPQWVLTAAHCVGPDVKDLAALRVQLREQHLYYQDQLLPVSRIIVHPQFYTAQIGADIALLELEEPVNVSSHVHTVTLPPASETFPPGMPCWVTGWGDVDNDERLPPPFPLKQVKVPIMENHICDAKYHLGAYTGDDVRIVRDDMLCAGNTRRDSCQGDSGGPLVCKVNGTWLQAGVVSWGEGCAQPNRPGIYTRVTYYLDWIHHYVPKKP
Description: Stock solutions of recombinant human tryptase, beta, from lung (Promega: catalog number G5631, or Enzo Life Sciences: catalog number BML-SE418) were made at 30 μM, in solution with 50 μM heparin sulfate and 500 mM NaCl. Multimer tryptase inhibitor stock solutions were made at 50 mM in DMSO. Drug plates were made at 5× the final concentration in assay buffer (50 mM HEPES, 150 mM NaCl, 100 μM EDTA, pH 7.4, 0.02% Tween-20). A final concentration of 1 nM tryptase was used. When required, drugs were diluted in assay buffer immediately before use in 10-fold serial dilutions. […] The release of fluorescent AMC was immediately measured every 60 seconds over 30-60 minutes at an excitation wavelength of 367 nm, monitoring emission at 468 nm on a Spectramax M5 (Molecular Devices) microplate reader. The Softmax Pro (Molecular Devices) and Graphpad prism software were used to determine Vmax, and concentration-response curve IC50s, respectively. As indicated below, IC50 ranges are provided for various exemplary monomers.

[2] = Hydrolysis of disiloxane to silanol followed by NMR; assay type: physicochemical; settings: expected from the effect of alkyl group size on silyl ether hydrolysis
From the text: Without wishing to be bound by any theory, the estimated half-life for hydrolysis of the disiloxane depicted here:
[drawing 18] is 15 days based at pH5 in 90% DMSO/10% water at room temperature based upon NMR experiments. […] Thus in certain aqueous situations, the hydrolysis of the dimeric disiloxane to monomeric silanol may be essentially irreversible on the timescale relevant for the biological functions they are modulating.

| SMILES | IC50 [1] [µM] | half-life of hydrolysis relative to the depicted disiloxane [2] |
| --- | --- | --- |
| C[Si](C)(O)c1cccc(-c2cccc(C(=O)N3CCC(c4cccc(CN)c4)CC3)c2)c1 [T35 Silyl] | 10 to 65 | – |
| C[Si](C)(O)c1ccc2cccc(C(=O)N3CCC(c4cccc(CN)c4)CC3)c2c1 [Target T11SILYL] | 0.0001 to 1 | – |
| C[Si](C)(O)c1cccc2[nH]c(C(=O)N3CCC(c4cccc(CN)c4)CC3)cc12 [Target T32Silyl] | 10 to 65 | – |
| C[Si](C)(O[Si](C)(C)c1cccc2sc(C(=O)N3CCC(c4cccc(CN)c4)CC3)cc12)c1cccc2sc(C(=O)N3CCC(c4cccc(CN)c4)CC3)cc12 [Target T46] | 0.0001 to 1 | – |
| C[Si](C)(O[Si](C)(C)c1cccc(CC(=O)N2CCC(c3cccc(CN)c3)CC2)c1)c1cccc(CC(=O)N2CCC(c3cccc(CN)c3)CC2)c1 [Target T47] | 0.0001 to 1 | – |
| C[Si](C)(/C=C/c1cccc(CC(=O)N2CCC(c3cccc(CN)c3)CC2)c1)O[Si](C)(C)/C=C/c1cccc(CC(=O)N2CCC(c3cccc(CN)c3)CC2)c1 [Target T47vinyl] | 1 to 10 | – |
| C[Si](C)(O[Si](C)(C)c1ccc(CC(=O)N2CCC(c3cccc(CN)c3)CC2)cc1)c1ccc(CC(=O)N2CCC(c3cccc(CN)c3)CC2)cc1 [Target T48] | 1 to 10 | – |
| C[Si](C)(O[Si](C)(C)c1cc2c(C(=O)N3CCC(c4cccc(CN)c4)CC3)cccc2s1)c1cc2c(C(=O)N3CCC(c4cccc(CN)c4)CC3)cccc2s1 [Target T49] | 0.0001 to 1 | – |
| C[Si](C)(O)c1cccc2ccc(C(=O)N3CCC4(CC3)COc3ccc(CN)cc34)cc12 [Target T52SPIRO] | 0.0001 to 1 | – |
| C[Si](C)(O)c1cccc2ccc(C(=O)N3CCC(c4cccc(CN)c4)CC3)cc12 [Target T52] | 0.0001 to 1 | – |
| C[Si](C)(O)c1cccc2cc(C(=O)N3CCC(c4cc(CN)ccc4F)CC3)ccc12 [Target T120F] | 0.0001 to 1 | – |
| C[Si](C)(O)Cc1cccc(C(=O)N2CCC(c3cccc(CN)c3)CC2)c1 [Target T122] | 1 to 10 | – |
| C[Si](C)(O)c1cccc(C(=O)N2CCC3(CC2)COc2ccc(CN)cc23)c1 [Target T129SPIRO] | 0.0001 to 1 | – |
| CSc1cc(C(=O)N2CCC(c3cccc(CN)c3)CC2)cc([Si](C)(C)O)c1 [Target T129Smethyl] | 0.0001 to 1 | – |
| C[Si](C)(O)c1cccc(C(=O)N2CCC(c3cccc(CN)c3)CC2)c1 [Target T129] | 0.0001 to 1 | – |
| C[Si](C)(O)c1ccc(C(=O)N2CCC(c3cccc(CN)c3)CC2)cc1 [Target T130] | 0.0001 to 1 | – |
| C[Si](C)(O)COc1ccc(C(=O)N2CCC(c3cccc(CN)c3)CC2)cc1 [Target T137, (4-(3-(aminomethyl)phenyl)piperidin-1-yl)(4-((hydroxydimethylsilyl)methoxy)-phenyl)methanone] | 0.0001 to 1 | – |
| C[Si](C)(O)COc1cccc(C(=O)N2CCC(c3cccc(CN)c3)CC2)c1 [Target T138, (4-(3-(aminomethyl)phenyl)-piperidin-1-yl)(3-((hydroxydimethylsilyl)-methoxy)phenyl)methanone] | 0.0001 to 1 | – |
| C[Si](C)(O)c1coc2ccc(C(=O)N3CCC(c4cccc(CN)c4)CC3)cc12 [Target T148] | 0.0001 to 1 | – |
| C[Si](C)(O)c1csc2ccc(C(=O)N3CCC(c4cccc(CN)c4)CC3)cc12 [Target T149] | 1 to 10 | – |
| Cn1cc(C(=O)N2CCC(c3cccc(CN)c3)CC2)c2ccc([Si](C)(C)O)cc21 [Target T152NMethyl] | 10 to 65 | – |
| C[Si](C)(O)c1ccc2c(C(=O)N3CCC(c4cccc(CN)c4)CC3)c[nH]c2c1 [Target T152] | 10 to 65 | – |
| CC[Si](CC)(O[Si](CC)(CC)c1ccccc1)c1ccccc1 [diphenyltetraethyldisiloxane] | – | more than ten fold longer |
